For orientation: Ki means the dissociation constant of the complex between target and ligand, obtained from inhibition or displacement.

The nature of assay [1]: Reactivity against cysteine after 24 hours of incubation. Type of assay: functional.
Assay [2] in a line: Reactivity against glutathione after 24 hours of incubation. The assay is classed as functional.
A further assay has as its target T1, Carbonic anhydrase 4 (Bos taurus, UniProt Q95323).
T1 sequence (Q95323 whole entry): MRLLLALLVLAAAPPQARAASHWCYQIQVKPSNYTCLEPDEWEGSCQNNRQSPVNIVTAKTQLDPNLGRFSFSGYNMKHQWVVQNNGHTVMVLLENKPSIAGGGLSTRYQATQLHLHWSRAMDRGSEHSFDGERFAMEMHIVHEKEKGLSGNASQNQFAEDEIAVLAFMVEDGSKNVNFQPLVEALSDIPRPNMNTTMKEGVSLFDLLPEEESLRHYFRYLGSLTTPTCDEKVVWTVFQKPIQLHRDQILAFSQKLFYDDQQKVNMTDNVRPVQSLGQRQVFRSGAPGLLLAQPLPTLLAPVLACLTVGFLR

In another assay the target is Carbonic anhydrase 1 (Homo sapiens, UniProt P00915).
Sequence of Carbonic anhydrase 1 (P00915 whole entry): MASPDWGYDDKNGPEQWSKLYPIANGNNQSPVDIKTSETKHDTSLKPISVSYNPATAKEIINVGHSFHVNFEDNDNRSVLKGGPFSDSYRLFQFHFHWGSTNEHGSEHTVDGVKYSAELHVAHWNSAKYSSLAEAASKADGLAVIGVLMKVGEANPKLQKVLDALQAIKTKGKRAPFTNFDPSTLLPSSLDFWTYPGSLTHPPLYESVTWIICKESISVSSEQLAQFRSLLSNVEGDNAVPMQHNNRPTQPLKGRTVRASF
The target of the next assay is Carbonic anhydrase 2 (Homo sapiens, UniProt P00918).

Each structure is given as a SMILES string.

Description for Carbonic anhydrase 1: In vitro inhibitory activity against human carbonic anhydrase I (hCAI)
Description for Carbonic anhydrase 2: In vitro inhibitory activity against human carbonic anhydrase II (hCAII)
Description for Carbonic anhydrase 4: In vitro inhibitory activity against bovine carbonic anhydrase IV (CAIV)

Consider `COc1ccc(NS(=O)(=O)c2c(F)c(F)c(F)c(F)c2F)cc1`, for which the Reactivity in assay [1] is 98%; in assay [2] it was 96%.

As for `NS(=O)(=O)c1ccc(NC(=O)Nc2c(F)c(F)c(F)c(F)c2F)c(Br)c1`, the Ki turned out to be 360 nM at Carbonic anhydrase 4, 1960 nM on Carbonic anhydrase 1 and 95 nM on Carbonic anhydrase 2.

As for `NS(=O)(=O)c1ccc(CNC(=O)c2c(F)c(F)cc(F)c2F)cc1`, the inhibitory constant (Ki) at Carbonic anhydrase 4 is 120 nM.

Take `NS(=O)(=O)c1ccc(Nc2ccnc(NS(=O)(=O)c3c(F)c(F)cc(F)c3F)n2)cc1`: the inhibition constant Ki on Carbonic anhydrase 4 worked out at 21 nM; on Carbonic anhydrase 1 it was 320 nM; on Carbonic anhydrase 2, 13 nM.

Regarding `NS(=O)(=O)c1ccc(NC(=O)c2c(F)c(F)cc(F)c2F)cc1`, the affinity on Carbonic anhydrase 4 corresponds to a Ki of 400 nM.

Take `NS(=O)(=O)c1cccc(NC(=O)c2c(F)c(F)cc(F)c2F)c1`: the affinity at Carbonic anhydrase 4, expressed as Ki, was 430 nM.

The compound `NS(=O)(=O)c1ccc(CCNC(=O)c2c(F)c(F)cc(F)c2F)cc1` showed a Ki at Carbonic anhydrase 4 of 94 nM.

As to `NS(=O)(=O)c1ccc(NC(=O)Nc2c(F)c(F)c(F)c(F)c2F)cc1`, the Reactivity in assay [1] and in assay [2] was 0% in each case. The compound further came in with a Ki at Carbonic anhydrase 4 of 21 nM.

`Cn1nc(S(N)(=O)=O)s/c1=N/C(=O)c1c(F)c(F)cc(F)c1F`: the inhibitory constant (Ki) on Carbonic anhydrase 4 came to 28 nM; at Carbonic anhydrase 1 it was 270 nM; at Carbonic anhydrase 2 it was 1.4 nM.

Take `NS(=O)(=O)c1cccc(NC(=O)Nc2c(F)c(F)c(F)c(F)c2F)c1`: the inhibitory constant (Ki) at Carbonic anhydrase 4 worked out at 430 nM.

As for `NS(=O)(=O)c1ccc(CCNS(=O)(=O)c2ccc(NC(=O)c3c(F)c(F)cc(F)c3F)cc2)cc1`, the inhibition constant (Ki) on Carbonic anhydrase 4 turned out to be 49 nM.

Regarding `NS(=O)(=O)c1ccc(NC(=O)Nc2c(F)c(F)c(F)c(F)c2F)c(F)c1`, the inhibition constant (Ki) on Carbonic anhydrase 4 came out at 63 nM; on Carbonic anhydrase 1, 760 nM; on Carbonic anhydrase 2 it was 18 nM.

In the case of `NS(=O)(=O)c1ccccc1NC(=O)Nc1c(F)c(F)c(F)c(F)c1F`, the figures for the inhibition constant Ki on Carbonic anhydrase 4, at Carbonic anhydrase 1 and at Carbonic anhydrase 2 were 485 nM, 1750 nM and 44 nM, respectively.

`NS(=O)(=O)c1cc(S(N)(=O)=O)c(NC(=O)Nc2c(F)c(F)c(F)c(F)c2F)cc1Cl`: the figures for the Ki at Carbonic anhydrase 4, at Carbonic anhydrase 1 and at Carbonic anhydrase 2 were 58 nM, 740 nM and 16 nM, respectively.

Regarding `NS(=O)(=O)c1ccc(NS(=O)(=O)c2ccc(NC(=O)c3c(F)c(F)cc(F)c3F)cc2)cc1`, the Ki on Carbonic anhydrase 4 is 63 nM.

For `NS(=O)(=O)c1ccccc1NC(=O)c1c(F)c(F)cc(F)c1F`, affinity at Carbonic anhydrase 4 was put at a Ki of 690 nM.

With `NS(=O)(=O)c1nnc(NC(=O)c2c(F)c(F)cc(F)c2F)s1`, the inhibition constant Ki at Carbonic anhydrase 4 is 24 nM. This Ki lies about 29-fold lower than the previous one.

Take `NS(=O)(=O)c1ccc(NS(=O)(=O)c2c(F)c(F)cc(F)c2F)c(Cl)c1`: the inhibitory constant (Ki) on Carbonic anhydrase 4 worked out at 49 nM; at Carbonic anhydrase 1, 930 nM; on Carbonic anhydrase 2, 61 nM.

On to `NS(=O)(=O)c1ccc(NC(=O)c2c(F)c(F)cc(F)c2F)c(Cl)c1`, for which the Ki on Carbonic anhydrase 4 stood at 42 nM.

On Carbonic anhydrase 4, `NS(=O)(=O)c1ccc(CNS(=O)(=O)c2ccc(NC(=O)c3c(F)c(F)cc(F)c3F)cc2)cc1` returned a Ki of 54 nM. This Ki and that of the compound before are within 1.5-fold of each other.

Regarding `NS(=O)(=O)c1ccc(CCNC(=O)Nc2c(F)c(F)c(F)c(F)c2F)cc1`, the Ki at Carbonic anhydrase 4 turned out to be 41 nM; on Carbonic anhydrase 1 it was 940 nM; on Carbonic anhydrase 2, 15 nM.

Take `NS(=O)(=O)c1nnc(NC(=O)Nc2c(F)c(F)c(F)c(F)c2F)s1`: the inhibition constant (Ki) was 45 nM on Carbonic anhydrase 4, 270 nM at Carbonic anhydrase 1 and 3.6 nM on Carbonic anhydrase 2.

In the case of `NS(=O)(=O)c1ccc(CNS(=O)(=O)c2c(F)c(F)cc(F)c2F)cc1`, affinity at Carbonic anhydrase 4 was put at a Ki of 135 nM.

In the case of `NS(=O)(=O)c1nnc(NS(=O)(=O)c2c(F)c(F)c(F)c(F)c2F)s1`, the Reactivity was 76% in assay [1] and 68% in assay [2].

On to `NS(=O)(=O)c1ccc(CNC(=O)Nc2c(F)c(F)c(F)c(F)c2F)cc1`, for which the Ki was determined as 50 nM at Carbonic anhydrase 4, 1000 nM on Carbonic anhydrase 1 and 15 nM on Carbonic anhydrase 2.

In the case of `NS(=O)(=O)c1ccc(NC(=O)Nc2c(F)c(F)c(F)c(F)c2F)c(Cl)c1`, the Ki at Carbonic anhydrase 4 turned out to be 245 nM; on Carbonic anhydrase 1, 1300 nM; on Carbonic anhydrase 2, 80 nM.

`NS(=O)(=O)c1ccc(CCNS(=O)(=O)c2c(F)c(F)cc(F)c2F)cc1` had a Ki at Carbonic anhydrase 4 of 76 nM.

In the case of `NS(=O)(=O)c1ccc(NC(=O)c2c(F)c(F)c(F)c(F)c2F)c(F)c1`, the Reactivity in assay [1] was determined as 55%; in assay [2] it was 49%.

As to `NS(=O)(=O)c1nnc(NS(=O)(=O)c2c(F)c(F)cc(F)c2F)s1`, the Reactivity in assay [1] and in assay [2] was 0% in each case. On Carbonic anhydrase 4, the affinity corresponds to a Ki of 15 nM.

For `NS(=O)(=O)c1ccc(NS(=O)(=O)c2c(F)c(F)cc(F)c2F)cc1`, the inhibition constant Ki was 330 nM at Carbonic anhydrase 4, 1300 nM on Carbonic anhydrase 1 and 25 nM at Carbonic anhydrase 2.

`NS(=O)(=O)c1ccc(NC(=O)c2c(F)c(F)cc(F)c2F)c(Br)c1` showed a Ki on Carbonic anhydrase 4 of 50 nM.

Take `NS(=O)(=O)c1ccc(NS(=O)(=O)c2c(F)c(F)cc(F)c2F)c(F)c1`: the inhibition constant Ki at Carbonic anhydrase 4 was determined as 42 nM; on Carbonic anhydrase 1 it was 580 nM; on Carbonic anhydrase 2, 3.8 nM.

Turning to `NS(=O)(=O)c1ccc(NC(=O)c2c(F)c(F)cc(F)c2F)c(F)c1`, the Reactivity in assay [1] and in assay [2] was 0% throughout. This compound also came in with a Ki at Carbonic anhydrase 4 of 31 nM.

The values above are taken from ChEMBL document CHEMBL1148281, “Carbonic anhydrase inhibitors: synthesis and topical intraocular pressure lowering effects of fluorine-containing inhibitors devoid of enhanced reactivity” (J Med Chem, 2004).
